Results on 3 molecules are retold here after US20190290759A1, “COMBINATION OF HDAC INHIBITOR AND ANTI-PD-L1 ANTIBODY FOR TREATMENT OF OVARIAN CANCER” (Syndax Pharmaceuticals, Inc., priority 2015, published 2019).

Data set [1] concerns HLA-ABC on PC-3 carcinoma cells. The experiment in a line: Cell-surface HLA-ABC expression by flow cytometry, PC-3. Format: cell-based, human. The settings on record: PC-3 (prostate), vorinostat 3 μM 5 h daily x4 days or entinostat 500 nM 72 h; for HLA-ABC % Positive: DMSO controls 99.8 / 99.9; for HLA-ABC MFI: DMSO controls 699 / 801.
The subject of data set [2] is PD-L1 on AsPC-1 carcinoma cells. Description: Cell-surface PD-L1 expression by flow cytometry, AsPC-1. Format: cell-based, human. The settings on record: AsPC-1 (pancreas), vorinostat 3 μM 5 h daily x4 days or entinostat 500 nM 72 h; for PD-L1 % Positive: DMSO controls 1.4 / 1.9; for PD-L1 MFI: DMSO controls 87.5 / 91.4. Background: In flow cytometry, cells or beads pass a laser one at a time.

In data set [3] the test system is MICA/B on NCI-H460 carcinoma cells. The experiment in a line: Cell-surface MIC-A/B expression by flow cytometry, NCI-H460. The class given is cell-based, human. The settings on record: NCI-H460 (lung); vorinostat 3 μM 5 h daily x4 days or entinostat 500 nM 72 h; DMSO controls 4.4 / 20.3.
The test system of data set [4] is HLA-ABC on NCI-H460 carcinoma cells. Description: Cell-surface HLA-ABC expression by flow cytometry, NCI-H460. Format: cell-based, human. The settings on record: NCI-H460 (lung), vorinostat 3 μM 5 h daily x4 days or entinostat 500 nM 72 h; for HLA-ABC % Positive: DMSO controls 86.6 / 99.2; for HLA-ABC MFI: DMSO controls 371 / 822.
The next data set deals with histone acetylation. The settings on record: following the administration of entinostat; cited from earlier work.
In data set [5] the test system is HLA-ABC on AsPC-1 carcinoma cells. Description: Cell-surface HLA-ABC expression by flow cytometry, AsPC-1. The class given is cell-based, human. Conditions: AsPC-1 (pancreas), vorinostat 3 μM 5 h daily x4 days or entinostat 500 nM 72 h; for HLA-ABC % Positive: DMSO controls 98.5 / 99.1; for HLA-ABC MFI: DMSO controls 625 / 670.
Data set [6] deals with host immune suppressor cells. The settings on record: preclinical models; cited from earlier work.
For data set [7], the system named is PD-L1 on PC-3 carcinoma cells. The experiment in a line: Cell-surface PD-L1 expression by flow cytometry, PC-3. The class given is cell-based, human. The settings on record: PC-3 (prostate), vorinostat 3 μM 5 h daily x4 days or entinostat 500 nM 72 h; for PD-L1 % Positive: DMSO controls 74.1 / 55.8; for PD-L1 MFI: DMSO controls 207 / 146.
Data set [8] concerns MICA/B on NCI-H441 carcinoma cells. Description: Cell-surface MIC-A/B expression by flow cytometry, NCI-H441. Format: cell-based, human. Conditions: NCI-H441 (lung); vorinostat 3 μM 5 h daily x4 days or entinostat 500 nM 72 h; DMSO controls 23.5 / 16.7.
For data set [9], the system named is MICA/B on AsPC-1 carcinoma cells. The experiment in a line: Cell-surface MIC-A/B expression by flow cytometry, AsPC-1. The class given is cell-based, human. The settings on record: AsPC-1 (pancreas); vorinostat 3 μM 5 h daily x4 days or entinostat 500 nM 72 h; DMSO controls 1.9 / 1.4.
The test system of data set [10] is HLA-ABC on DU 145 carcinoma cells. Description: Cell-surface HLA-ABC expression by flow cytometry, DU 145. The class given is cell-based, human. The settings on record: DU 145 (prostate), vorinostat 3 μM 5 h daily x4 days or entinostat 500 nM 72 h; for HLA-ABC % Positive: DMSO controls 100 / 100; for HLA-ABC MFI: DMSO controls 200 / 226.
Data set [11] relates to PD-L1 on NCI-H441 carcinoma cells. The experiment in a line: Cell-surface PD-L1 expression by flow cytometry, NCI-H441. The settings on record: NCI-H441 (lung); vorinostat 3 μM 5 h daily x4 days or entinostat 500 nM 72 h; DMSO controls 958 / 1031.
Data set [12] has as its system PD-L1 on DU 145 carcinoma cells. The experiment in a line: Cell-surface PD-L1 expression by flow cytometry, DU 145. The class given is cell-based, human. Conditions: DU 145 (prostate), vorinostat 3 μM 5 h daily x4 days or entinostat 500 nM 72 h; for PD-L1 % Positive: DMSO controls 76.3 / 81.4; for PD-L1 MFI: DMSO controls 200 / 226.
The subject of data set [13] is PD-L1 in lung and prostate carcinoma xenografts (NCI-H460, PC-3, DU 145). Description: Human xenografts, PD-L1 immunofluorescence. The class given is in vivo, nu/nu mice. The settings on record: vorinostat 150 mg/kg p.o. 4 daily doses, excised 24 h after last dose; entinostat 20 mg/kg p.o. single dose 72 h before excision; vs DMSO. How it is done:
Female nu/nu mice were implanted with NCI-H460 (lung) or PC-3 (prostate) carcinoma cells. […] Frozen specimens were examined for cell-surface expression of PD-L1 by immunofluorescence using antihuman PD-L1 (clone SP142) and goat anti-rabbit AF594, and counterstained with DAPI-containing mounting medium.
Tumors were excised 24 h after the last dose. […] Frozen sections were examined for cell-surface expression of human PD-L1 by immunofluorescence. Confocal images are shown at 20× magnification and are representative of 3 animals/treatment. Relative PD-L1 expression levels were calculated using ImageJ software by normalizing the intensity values to their respective DMSO treated controls.

Data set [14] concerns HLA-ABC on NCI-H441 carcinoma cells. Description: Cell-surface HLA-ABC expression by flow cytometry, NCI-H441. The class given is cell-based, human. The settings on record: NCI-H441 (lung), vorinostat 3 μM 5 h daily x4 days or entinostat 500 nM 72 h; for HLA-ABC % Positive: DMSO controls 99.9 / 99.9; for HLA-ABC MFI: DMSO controls 1182 / 1232.
For data set [15] the following is noted: in vivo; cited from earlier work.
For data set [16], the system named is PD-L1 on NCI-H460 carcinoma cells. The experiment in a line: Cell-surface PD-L1 expression by flow cytometry, NCI-H460. The class given is cell-based, human. Conditions: NCI-H460 (lung), vorinostat 3 μM 5 h daily x4 days or entinostat 500 nM 72 h; for PD-L1 % Positive: DMSO controls 68.0 / 89.5; for PD-L1 MFI: DMSO controls 199 / 492.
Data set [17] relates to human lung and prostate carcinoma cells (DU 145, PC-3, NCI-H460, NCI-H441). Description: Avelumab-mediated ADCC, 4 h 111In release assay with NK effectors. Format: cell-based. Conditions: cells pre-exposed to vorinostat 3 μM (5 h daily x4 days) or entinostat 500 nM (72 h) vs DMSO; avelumab 2 ng/mL; NK effectors E:T=30:1. How it is done: (§1) NK lysis was performed in the presence of avelumab or isotype control (2 ng/mL).
(§2) Results are presented as mean±S.E.M. from 3 replicate wells, and are representative of 2-4 independent experiments. […] For CD16 blocking, NK cells were pretreated for 2 h with anti-CD16 blocking antibody prior to being used as effectors. Results are presented as mean±S.E.M. from 3 replicate wells, and are representative of 2-4 independent experiments.

The subject of data set [18] is MICA/B on PC-3 carcinoma cells. The experiment in a line: Cell-surface MIC-A/B expression by flow cytometry, PC-3. The class given is cell-based, human. The settings on record: PC-3 (prostate); vorinostat 3 μM 5 h daily x4 days or entinostat 500 nM 72 h; DMSO controls 33.2 / 43.7.
Data set [19] concerns MICA/B on DU 145 carcinoma cells. Description: Cell-surface MIC-A/B expression by flow cytometry, DU 145. The class given is cell-based, human. Conditions: DU 145 (prostate); vorinostat 3 μM 5 h daily x4 days or entinostat 500 nM 72 h; DMSO controls 42.9 / 58.9.
A further data set can be described thus: in vitro. Conditions: human, PC-3 prostate carcinoma cells.
Data set [20] relates to whole PBMCs or dendritic cells isolated from PBMCs. The settings on record: cited from earlier work.
In data set [21] the test system is NCI-H460 lung carcinoma cells. Description: Avelumab-mediated NK lysis with CD16 blocking. Format: cell-based, human. Conditions: NK cells pretreated 2 h with anti-CD16 blocking antibody 12 μg/mL; targets exposed to vorinostat or DMSO; avelumab 2 ng/mL. How it is done: as §1
NK cells were pretreated for 2 h with anti-CD16 blocking antibody (12 μg/mL) prior to being used as effectors.
as §2

For data set [22], the system named is human carcinoma cell lines. Conditions: cited from earlier work.

Regarding `Nc1ccccc1NC(=O)c1ccc(CNC(=O)OCc2cccnc2)cc1` [Entinostat, N-(2-aminophenyl)-4-[N-(pyridine-3-yl)methoxycarbonylamino-methyl]-benzamide], the “HLA-ABC % Positive” value in [1] is given as 100%; in data set [4], 94.3%; in data set [5] it was 99.0%; in [10], 100%; in data set [14], 99.9%. Further, the “HLA-ABC MFI” value in [1] is 1144; in data set [4] it was 547; in data set [5], 126; in [10], 705; in data set [14] it was 1375. Further, the “PD-L1 % Positive” value is on record as 9.9% in data set [2], 86.4% in data set [7], 99.5% in [12] and 90.2% in data set [16]. In addition, the “PD-L1 MFI” value turned out to be 126 in data set [2]; 240 in [7]; 1027 in data set [11]; 705 in data set [12]; 507 in [16]. The “MIC-A/B % Positive” value is given as 69.8% in data set [3]; 46.2% in data set [8]; 6.5% in data set [9]; 91.5% in [18]; 94.3% in data set [19]. For the same molecule, the “persistence of changes in histone acetylation” value in the data set with histone acetylation is listed as “persist for several weeks”. Besides, the “effect on host immune suppressor cells” value in data set [6] is “reduce the number of, and inhibit the function of, host immune suppressor cells”. The “PD-L1 expression in vivo in xenografts (immunofluorescence)” value in data set [13] is listed as “enhance PD-L1 expression”. In addition, the half-life result in data set [15] is given as “about 100 hours”. Moreover, the “Sensitivity of carcinoma cells to ADCC mediated by avelumab (NK-cell lysis)” value in data set [17] was “significantly increased sensitivity”.
In general, viability refers to the share of living cells, or the viability signal relative to a control. In the case of `O=C(CCCCCCC(=O)Nc1ccccc1)NO` [Vorinostat], the “HLA-ABC % Positive” value is reported as 99.7% in [1]; 97.1% in data set [4]; 99.2% in data set [5]; 100% in [10]; 99.9% in data set [14]. The “HLA-ABC MFI” value in data set [1] is given as 816; in data set [4], 608; in data set [5] it was 806; in data set [10], 354; in data set [14] it was 1284. In the data set “in vitro”, this molecule displayed a viability of 99%. Also, the “PD-L1 % Positive” value is 1.4% in data set [2], 83.3% in data set [7], 96.0% in data set [12] and 86.9% in [16]. Besides, the “PD-L1 MFI” value is on record as 90.4 in [2]; 251 in [7]; 1053 in [11]; 354 in [12]; 278 in [16]. The “MIC-A/B % Positive” value in data set [3] stood at 70.6%; in [8], 21.1%; in data set [9], 0.8%; in data set [18] it was 58.1%; in data set [19], 93.9%. Further, the “PD-L1 expression in vivo in xenografts (immunofluorescence)” value in data set [13] is on record as “enhance PD-L1 expression”.
For “avelumab: fully human anti-PD-L1 IgG1 antibody”, the “lysis of PBMCs or dendritic cells in NK-mediated ADCC assays” value in [20] is “Little or no lysis”. Further, in [21], the “Avelumab-mediated lysis of carcinoma cells after CD16 neutralization” value is reported as “decreased by CD16 neutralization”. Further, the “human carcinoma cell lines in which ADCC was induced” value in [22] (PBMCs as effectors) is given as 8 out of 18. The “cell lines with augmented lysis after IFN-γ pretreatment” value in data set [22] (tumor cell lines pretreated with IFN-γ) is given as 4 out of 10.
